Experimental data taken from ChEMBL document CHEMBL5154721, “Discovery of HDAC6-Selective Inhibitor NN-390 with in Vitro Efficacy in Group 3 Medulloblastoma” (J Med Chem, 2022).
Active and inactive are the calls of the source. The calls are words filed in the database; no cut-off is given here.

Key:
Histone deacetylase 3 = Histone deacetylase 3 (Homo sapiens, UniProt O15379); assay: Inhibition of full length human recombinant HDAC3 expressed in Sf9 baculovirus system using FAM-labeled acetylated peptide as substrate by measuring fluorescence intensity by EMSA method
Sequence of Histone deacetylase 3 (O15379 whole entry): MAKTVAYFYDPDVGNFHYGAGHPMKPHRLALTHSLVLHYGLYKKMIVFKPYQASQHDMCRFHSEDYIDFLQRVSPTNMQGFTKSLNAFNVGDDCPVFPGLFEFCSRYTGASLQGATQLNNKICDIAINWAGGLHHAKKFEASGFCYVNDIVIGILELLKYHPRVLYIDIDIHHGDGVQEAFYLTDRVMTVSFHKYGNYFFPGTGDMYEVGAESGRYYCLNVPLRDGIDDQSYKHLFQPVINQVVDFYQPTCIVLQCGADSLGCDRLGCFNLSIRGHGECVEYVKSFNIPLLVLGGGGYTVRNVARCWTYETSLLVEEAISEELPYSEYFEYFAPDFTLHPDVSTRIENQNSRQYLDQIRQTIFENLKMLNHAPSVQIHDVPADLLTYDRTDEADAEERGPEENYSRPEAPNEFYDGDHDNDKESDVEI

[1] = biological target: T1, Protein deacetylase HDAC6 (Homo sapiens, UniProt Q9UBN7); assay: Inhibition of full length human recombinant HDAC6 expressed in Sf9 baculovirus system using FAM-labeled acetylated peptide as substrate by measuring fluorescence intensity by EMSA method
T1 sequence (Q9UBN7 whole entry): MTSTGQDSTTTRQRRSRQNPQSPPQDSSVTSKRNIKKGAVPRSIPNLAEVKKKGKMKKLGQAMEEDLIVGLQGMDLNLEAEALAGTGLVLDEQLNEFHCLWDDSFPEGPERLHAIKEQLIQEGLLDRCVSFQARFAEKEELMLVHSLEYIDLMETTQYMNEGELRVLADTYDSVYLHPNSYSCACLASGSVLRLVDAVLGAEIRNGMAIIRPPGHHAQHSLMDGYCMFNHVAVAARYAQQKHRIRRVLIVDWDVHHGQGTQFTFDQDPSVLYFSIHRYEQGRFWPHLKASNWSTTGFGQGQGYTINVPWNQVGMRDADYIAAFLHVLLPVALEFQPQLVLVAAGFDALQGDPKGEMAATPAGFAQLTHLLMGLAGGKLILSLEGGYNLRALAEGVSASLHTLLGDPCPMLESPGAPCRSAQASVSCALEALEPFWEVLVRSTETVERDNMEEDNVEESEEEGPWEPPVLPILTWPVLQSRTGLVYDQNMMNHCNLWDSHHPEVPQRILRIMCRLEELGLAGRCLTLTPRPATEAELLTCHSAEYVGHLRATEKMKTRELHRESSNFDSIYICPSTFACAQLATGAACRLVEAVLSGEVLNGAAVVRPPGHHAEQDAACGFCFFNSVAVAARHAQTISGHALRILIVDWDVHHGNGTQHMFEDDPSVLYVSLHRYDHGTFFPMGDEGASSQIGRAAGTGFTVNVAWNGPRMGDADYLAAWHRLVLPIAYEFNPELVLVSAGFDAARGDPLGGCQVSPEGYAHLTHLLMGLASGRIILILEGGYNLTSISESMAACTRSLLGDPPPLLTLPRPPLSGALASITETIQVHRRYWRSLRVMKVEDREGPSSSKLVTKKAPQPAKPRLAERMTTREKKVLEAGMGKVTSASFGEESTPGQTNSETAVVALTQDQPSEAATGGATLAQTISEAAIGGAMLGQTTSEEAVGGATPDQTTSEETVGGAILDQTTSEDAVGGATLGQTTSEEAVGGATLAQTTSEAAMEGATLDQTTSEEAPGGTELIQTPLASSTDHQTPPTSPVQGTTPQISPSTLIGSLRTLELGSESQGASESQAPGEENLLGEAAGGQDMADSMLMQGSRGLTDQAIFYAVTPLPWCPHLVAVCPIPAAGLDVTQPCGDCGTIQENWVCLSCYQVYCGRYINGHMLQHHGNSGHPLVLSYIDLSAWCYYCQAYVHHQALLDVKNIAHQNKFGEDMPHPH

Histone deacetylase 8 = biological target: T2, Histone deacetylase 8 (Homo sapiens, UniProt Q9BY41); assay: Inhibition of full length human recombinant HDAC8 expressed in Sf9 baculovirus system using FAM-labeled acetylated peptide as substrate by measuring fluorescence intensity by EMSA method
T2 sequence (Q9BY41 whole entry): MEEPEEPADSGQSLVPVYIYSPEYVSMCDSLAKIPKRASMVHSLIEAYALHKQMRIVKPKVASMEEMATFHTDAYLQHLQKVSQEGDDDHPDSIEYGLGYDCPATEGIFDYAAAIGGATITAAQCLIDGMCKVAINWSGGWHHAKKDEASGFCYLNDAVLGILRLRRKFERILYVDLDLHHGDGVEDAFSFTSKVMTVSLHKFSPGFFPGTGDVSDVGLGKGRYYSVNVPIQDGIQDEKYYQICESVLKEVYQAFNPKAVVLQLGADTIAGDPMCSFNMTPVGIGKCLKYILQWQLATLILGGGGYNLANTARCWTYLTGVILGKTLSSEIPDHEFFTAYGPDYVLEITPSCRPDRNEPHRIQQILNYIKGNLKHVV

Histone deacetylase 11 = biological target: T3, Histone deacetylase 11 (Homo sapiens, UniProt Q96DB2); assay: Inhibition of full length human recombinant HDAC11 expressed in Sf9 baculovirus system using FAM-labeled acetylated peptide as substrate by measuring fluorescence intensity by EMSA method
T3 sequence (Q96DB2 whole entry): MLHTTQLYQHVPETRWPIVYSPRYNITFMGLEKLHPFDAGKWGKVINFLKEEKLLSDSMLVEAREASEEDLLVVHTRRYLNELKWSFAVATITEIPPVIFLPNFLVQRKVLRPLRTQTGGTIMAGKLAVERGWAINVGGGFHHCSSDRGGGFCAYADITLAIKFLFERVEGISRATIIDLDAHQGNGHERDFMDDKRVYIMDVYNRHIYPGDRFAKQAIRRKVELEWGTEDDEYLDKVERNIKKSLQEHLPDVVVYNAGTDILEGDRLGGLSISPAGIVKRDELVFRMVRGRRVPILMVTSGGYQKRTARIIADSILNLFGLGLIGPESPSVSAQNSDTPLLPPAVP

MV4-11 [2] = assay: cells; format: functional, cell-based; conditions: Homo sapiens, MV4-11, 72 h
MM1.S = assay: Cytotoxicity against human MM1.S cells assessed as inhibition of cell growth incubated for 72 hrs measured by spectrophotometer analysis; format: functional, cell-based
in vitro = conditions: human, MRC9 cells
[3] = Competitive inhibition of N-terminal His-SUMO tagged zebra fish recombinant HDAC6 catalytic domain 2 transfected with pET28b(+) vector in Escherichia coli BL21 (DE3) RILP cells incubated for 10 mins followed by addition of FITC-M344 measured af ter 10 mins by fluorescence polarization assay; design: species or system Danio rerio
[4] = Therapeutic window, ratio of IC50 for human fetal neuronal stem cells to IC50 for human HD-MB03 cells; format: ADME; conditions: fetal neuronal stem cells versus HD-MB03 cells, read-out: Ratio IC50
[5] = Cytotoxicity against human HD-MB03 cells assessed as inhibition of cell growth incubated for 72 hrs measured by spectrophotometer analysis; format: functional, cell-based; conditions: HD-MB03, 72 h
MV4-11 [6] = assay: Increase in acetylation of histone H3 in human MV4-11 cells at 0.1 uM after 6 hrs by Western blot analysis; format: functional, cell-based
[7] = Cytotoxicity against primary normal human fibroblast cells assessed as inhibition of cell growth incubated for 72 hrs measured by spectrophotometer analysis; format: toxicity, cell-based
[8] = Cytotoxicity against HUVEC cells assessed as inhibition of cell growth incubated for 72 hrs measured by spectrophotometer analysis; format: toxicity, cell-based; conditions: human
[9] = Stability in human plasma assessed as half life measured upto 60 mins by LC-MS/MS analysis; format: ADME, cell-free
[10] = Lipophilicity, logP of the compound; format: physicochemical; conditions: octanol/water
[11] = Cytotoxicity against human fetal neuronal stem cells assessed as inhibition of cell growth incubated for 72 hrs measured by spectrophotometer analysis; format: toxicity, cell-based, NSC
[12] = AUCinfinity in CD-1 mouse at 20 mg/kg, ip; format: ADME, organism-based; design: time infinity, dose 20 mg/kg, route ip; conditions: in vivo
[13] = AUC/D in CD-1 mouse at 20 mg/kg, ip; format: ADME, organism-based; conditions: in vivo
MV4-11 [14] = assay: Induction of apoptosis in human MV4-11 cells assessed as late apoptotic cells at 0.25 uM after 24 hrs by Annexin V/PI staining based flow cytometric analysis (Rvb=8.13%); format: functional
MV4-11 [15] = assay: Induction of apoptosis in human MV4-11 cells assessed as late apoptotic cells at 2 uM after 18 hrs by Annexin V/PI staining based flow cytometric analysis; format: functional
HD-MB03 [16] = assay: Increase in acetylation of histone H3 in human HD-MB03 cells at 211 nM for 6 hrs by Western blotting anlaysis; format: functional, cell-based
HD-MB03 [17] = assay: […] of self renewal of BTIC-enriched human HD-MB03 cells at 964 nM incubated for 72 hrs by sphere formation assay; format: functional, cell-based

| SMILES | IC50 (Histone deacetylase 3) [nM] | IC50 [1] [nM] | IC50 (Histone deacetylase 8) [nM] | IC50 (Histone deacetylase 11) [nM] | IC50 (MV4-11 [2]) [nM] | IC50 (MM1.S) [nM] | IC50 at 72 h (in vitro) [µM] | IC50 [3] [nM] | also measured |
| --- | --- | --- | --- | --- | --- | --- | --- | --- | --- |
| CC(C)N(Cc1ccc(CC(=O)NO)cc1)S(=O)(=O)c1cc(F)c(F)c(F)c1F | > 1000 | 143 | 84.6 | > 1000 | 2500 | 2400 | > 25 | – | – |
| O=C(/C=C/c1cccc(S(=O)(=O)Nc2ccccc2)c1)NO [BELINOSTAT] | – | – | – | – | – | – | – | 213 | selectivity ratio [4]: 3.7; IC50 [5]: 0.32 µM |
| O=C(NO)c1ccc(CN(C2CCCC2)S(=O)(=O)c2cc(F)c(F)c(F)c2F)cc1 | > 1000 | 49.9 | > 1000 | > 1000 | 2710 | 3300 | > 50 | 356 | – |
| CC(C)CN(Cc1ccc(C(=O)NO)cc1)S(=O)(=O)c1cc(F)c(F)c(F)c1F | > 1000 | 24.6 | > 1000 | > 1000 | 520 | 690 | > 50 | 137 | – |
| O=C(CCCCCCC(=O)Nc1ccccc1)NO [VORINOSTAT] | – | – | – | – | – | 1540 | – | – | – |
| CC(C)N(Cc1ccc(C(=O)NO)cc1)S(=O)(=O)c1c(F)c(F)c(F)c(F)c1F | – | 4.32 | – | – | – | 440 | > 20 | 182 | Activity (MV4-11 [6]): Active; IC50 at 72 h [7]: 2300 nM; IC50 at 72 h [8]: 3.7 µM; half-life [9]: 22 min |
| O=C(CCCCCCNC(=O)c1cnc(N(c2ccccc2)c2ccccc2)nc1)NO [RICOLINOSTAT] | – | – | – | – | – | 840 | > 20 | 90.2 | IC50 [5]: 5.22 µM |
| COCCN(Cc1ccc(C(=O)NO)cc1)S(=O)(=O)c1cc(F)c(F)c(F)c1F | > 1000 | 27.8 | > 1000 | > 1000 | 660 | 710 | > 25 | – | – |
| COc1cc(C(=O)NO)ccc1CN(C(C)C)S(=O)(=O)c1cc(F)c(F)c(F)c1F | > 1000 | > 1000 | 474 | > 1000 | 5660 | 5750 | > 50 | – | – |
| CC(C)N(Cc1ccc(C(=O)NO)cn1)S(=O)(=O)c1cc(F)c(F)c(F)c1F | > 1000 | 121 | > 1000 | > 1000 | 1000 | 1600 | > 50 | 1130 | – |
| CC(C)N(Cc1ccc(C(=O)NO)cc1)Cc1cc(F)c(F)c(F)c1F | 899 | 16.2 | > 1000 | > 1000 | 7430 | 11400 | > 50 | – | logP [10]: 4.07 |
| O=C(NO)c1ccc(CN(C2CC2)S(=O)(=O)c2cc(F)c(F)c(F)c2F)cc1 | – | – | > 1000 | – | 400 | 480 | > 20 | 173 | IC50 at 72 h [11]: 1430 nM; half-life [9]: 41 min; AUC(0-inf) [12]: 1520 ng·h/mL; AUC/dose [13]: 79 ng·h/mL |
| O=C(CCCCCCNC(=O)c1cnc(N(c2ccccc2)c2ccccc2Cl)nc1)NO [CITARINOSTAT] | – | – | – | – | – | – | > 30 | 154 | inhibition (MV4-11 [6]): Active; IC50 at 72 h [11]: 4350 nM; Activity (MV4-11 [14]): 8.31%; Activity (MV4-11 [15]): 24%; IC50 [5]: 5.8 µM; Activity (HD-MB03 [16]): Active; Activity (HD-MB03 [17]): Active |
| O=C(NO)c1ccc2c(c1)CCN(S(=O)(=O)c1cc(F)c(F)c(F)c1F)C2 | > 1000 | 50.4 | > 1000 | > 1000 | 900 | 1540 | > 25 | – | – |
| CC(C)N(Cc1ccc(C(=O)NO)cc1)C(=O)c1c(F)c(F)c(F)c(F)c1F | – | – | – | – | – | 12300 | > 50 | – | – |
